Experimental findings from patent US20260137697A1, “THIAZOLO[5,4-D]PYRIMIDINE COMPOUNDS, COMPOSITIONS COMPRISING THEM AND USES THEREOF” (University de Montreal, priority 2022, published 2026) are described below.

Structures are written as SMILES.

The target in one test is T1, BRAF (Homo sapiens, UniProt P15056).
T1 construct: GST; purchased Millipore Sigma B4062-10UG
In words: BRAF kinase activity assay (ADP-Glo). As to conditions: Table 3; 10 μM ATP, kinase-dead MEK1 substrate. The class given is biochemical. Here is the method: (§1) Compound preparation: solid samples of each substance in 1dram vials were suspended in DMSO (Fisher Scientific) at a stock concentration of 20 mM. Stocks were kept at −20° C. and protected from light. If solubility of the compound at 20 mM appeared to be an issue, the initial concentration of the DMSO stock was changed to 10 mM or 5 mM.
(§2) In vitro enzymatic reactions were used for evaluating compounds intrinsic activity against BRAF, CRAF and ARAF. For BRAF and CRAF, 0.375 nM of purified GST-tagged kinases (cat. No. B4062-10UG and cat. No. R1656-10UG respectively from Millipore Sigma) were incubated with 75 nM of kinase-dead MEK1 substrate (cat. No. 40075; BPS Bioscience) in the presence of 10 μM of Ultrapure ATP (cat. No. V9102; Promega; part V915A) with and without the test compound in a buffer containing 50 mM HEPES pH 7.5, 10 mM MgCl2, 1 mM EDTA, 0.01% Brij-35 and 2 mM DTT. Separate reactions were performed with the MEK1 substrate and ATP as a blank control. ARAF kinase reactions were rigorously the same with the exception that kinase concentration was raised to 3.75 nM (cat. No. 1768-0000-1; Reaction Biology).
(§3) For compound treatment, 5 μL/well of test substance solution are placed in a 384-well proxyplate (Perkin Elmer) and mixed with 2× concentrated kinase reactions. The dilution series is selected so that nine concentrations cover a range from 100 nM to 0.01 nM. […] The final concentration of DMSO in the assay is set at 0.05%.
(§4) BRAF and CRAF kinase reactions were carried out for a total of 2 hours at 30° C. and then stopped by 1/2 dilution in ADP-Glo Reagent (cat. No. V9102; Promega; part V912C). Reactions were then incubated for 1 h at room temperature before addition of one volume of Kinase Detection Reagent (cat. No. V9102; Promega; part V917A). Plates were then equilibrated at room temperature for 30 minutes before detection of luminescence on a Synergy Neo2 plate reader (Biotek). The effect of each compound dilution on BRAF and CRAF kinase activity was expressed as % inhibition and calculated as follows. First, the internal 100% inhibition control (average of luminescence in kinase reactions comprising kinase dead MEK1 substrate alone) was subtracted from each data point. The average of DMSO (vehicle) controls (set as 0% inhibition) was established and used to calculate % inhibition:
(§5) IC50 values were obtained by plotting the kinase inhibition values and fitting the dose-activity curves using a log(agonist) versus response—variable slope (four parameters) function using either GraphPadPrism (V7.0) or Dotmatics Screening Ultra platform. Standards included in the ARAF kinase assay were Belvarafenib (MedChem Express cat. No. HY-109080; CAS No. 1446113-23-0), LXH254 (MedChem Express cat. No. HY-112089; CAS No. 1800398-38-2) and BGB283 (cat. No. HY-18957; CAS No. 1446090-79-4).
(In ADP-Glo the light output rises with the ADP produced.)

Another test deals with T2, CRAF (Homo sapiens, UniProt P04049).
T2 construct: fused on or other part: GST tag (N-terminal according to the vendor's product)
T2 sequence (P04049 whole entry Y340E/Y341E, form open, the tested form may be a part): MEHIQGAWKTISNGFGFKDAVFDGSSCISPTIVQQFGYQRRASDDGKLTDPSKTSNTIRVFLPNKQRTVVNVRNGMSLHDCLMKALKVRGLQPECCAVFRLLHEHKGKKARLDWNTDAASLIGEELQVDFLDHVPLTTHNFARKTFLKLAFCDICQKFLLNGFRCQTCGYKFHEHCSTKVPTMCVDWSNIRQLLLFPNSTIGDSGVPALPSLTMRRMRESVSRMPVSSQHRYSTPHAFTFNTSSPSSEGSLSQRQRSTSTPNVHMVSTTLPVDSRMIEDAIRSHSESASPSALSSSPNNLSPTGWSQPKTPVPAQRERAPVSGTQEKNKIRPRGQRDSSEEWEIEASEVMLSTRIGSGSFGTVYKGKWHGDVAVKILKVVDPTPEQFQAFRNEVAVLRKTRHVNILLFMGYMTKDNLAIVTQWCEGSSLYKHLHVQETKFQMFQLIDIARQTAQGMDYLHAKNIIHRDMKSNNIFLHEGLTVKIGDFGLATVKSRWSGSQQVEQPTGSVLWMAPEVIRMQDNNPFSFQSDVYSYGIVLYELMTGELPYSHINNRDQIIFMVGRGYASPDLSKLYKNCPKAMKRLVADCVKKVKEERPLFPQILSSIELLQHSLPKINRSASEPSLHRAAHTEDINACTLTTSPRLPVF
In words: CRAF kinase activity assay (ADP-Glo). In kind it is biochemical. The conditions noted are these: Table 3; 10 μM ATP, kinase-dead MEK1 substrate. Here is the method:
as §1, §2, §3, §4, §5

Another test relates to pERK, HCT116 cells. In words: Phospho-ERK inhibition, AlphaLISA p-ERK 1/2, HCT-116. In kind it is cell-based, human. As to conditions: Table 3; for IC50: HCT116 cells (KRAS G13D), 1 h treatment; for HCT116 pERK (Ymin %): lowest % inhibition value of the pERK IC50 curve, above −20% = no paradoxical induction. The method, then: All cancer cell lines (A375, A101D, A2058, RKO, HT29 SK-MEL 30, IPC298, HepG2, HCT-116, Lovo, SW620, SW480, NCI-H358, NCI-H2122, Calu-6, NCIH2087, NCIH1755, NCIH1666 and Mewo) were obtained from ATCC and cultured in RPM1-1640 medium (Gibco) supplemented with 5% heat inactivated fetal bovine serum (FBS, Wisent) at 37° C. under 5% CO2. Cells were maintained in T175 flasks (Greiner). They were passaged by removing the culture medium, washing once in 10 mL of room temperature Phosphate Buffered Saline (PBS; Wisent) and incubating at 37° C. with 2 mL of 0.05% Trypsin (Thermo-Fisher). Trypsin was then inactivated by adding complete growth medium and the cells were then replated in a T175 culture dish at the appropriate dilution. All cell lines were routinely tested for mycoplasma contamination. Tissue type and mutational status of each cell line can be found in Table B.
(c) Measurement of Phospho-ERK Inhibition in Cultivated Human Cancer Cell Lines by the AlphaLISA® SureFire® Ultra™ p-ERK 1/2 (Thr2O2/Tyr204)
AlphaLISA® SureFire® Ultra™ p-ERK 1/2 (Thr202/Tyr204) analysis was conducted on cells plated in 100 μL of complete RPMI-1640 growth medium in 96-well flat-bottomed transparent dishes (Costar) at a density indicated in Table C. Cells were maintained overnight at 37° C. under 5% CO2 before treatment with compounds' dilution series for one hour. The cell density in cells/cm^2 corresponds to cell number divided by the area of one well of a 96-well plate (0.143 cm^2).
In a dilution series 100 μL/well of test substance dilution prepared in complete RPMI-1640 growth media was added to the cells. The dilution series is selected so that ten concentrations cover a range from 10 μM to 0.33 nM. If necessary, the initial concentration of 10 μM is increased to 100 μM or lowered to 1 μM (as in the case of A375 and H1666 cells, which are generally more sensitive to the compounds) and further dilution is carried out accordingly. The final concentration of DMSO in the assay is set at 0.5%.
After treatment, media was removed, and cells were lysed in 50 μL of 1× AlphaScreen Ultra Lysis Buffer (Perkin Elmer). The AlphaLISA® SureFire® Ultra™ p-ERK 1/2 (Thr202/Tyr204) (PerkinElmer) reactions were performed with 5 μL of cell lysate according to the manufacturer's specifications in 384-well proxyplates (Perkin Elmer) followed by overnight incubation of the reactions at room temperature in a humidified chamber. After completion of the reactions, the signals were recorded on an EnVision plate reader (Perkin Elmer) using built in AlphaLISA® settings.
The effect of each compound dilution on the pERK signal was expressed in % inhibition and calculated as follows. An internal 100% inhibition control (1 μM trametinib, cat. No. HY-10999; MedChem Express; CAS No. 871700-17-3) was included in each plate and used as a measure of pERK background. First, the value obtained for trametinib was subtracted from each data point. The average of DMSO (vehicle) controls (set as 0% inhibition) was established and used to calculate % inhibition:
The ability of each compound to inhibit pERK signal was expressed as an IC50 value obtained by plotting the inhibition values for each data point of a dilution series and fitting the obtained curves using a log(agonist) versus response—variable slope (four parameters) function using GraphPadPrism (V7.0) or Dotmatics Screening Ultra platform.
When present, paradoxical pERK induction is inferred from the negative % inhibition values observed in the pERK IC50 curves of a compound.

T1 sequence (P15056 whole entry): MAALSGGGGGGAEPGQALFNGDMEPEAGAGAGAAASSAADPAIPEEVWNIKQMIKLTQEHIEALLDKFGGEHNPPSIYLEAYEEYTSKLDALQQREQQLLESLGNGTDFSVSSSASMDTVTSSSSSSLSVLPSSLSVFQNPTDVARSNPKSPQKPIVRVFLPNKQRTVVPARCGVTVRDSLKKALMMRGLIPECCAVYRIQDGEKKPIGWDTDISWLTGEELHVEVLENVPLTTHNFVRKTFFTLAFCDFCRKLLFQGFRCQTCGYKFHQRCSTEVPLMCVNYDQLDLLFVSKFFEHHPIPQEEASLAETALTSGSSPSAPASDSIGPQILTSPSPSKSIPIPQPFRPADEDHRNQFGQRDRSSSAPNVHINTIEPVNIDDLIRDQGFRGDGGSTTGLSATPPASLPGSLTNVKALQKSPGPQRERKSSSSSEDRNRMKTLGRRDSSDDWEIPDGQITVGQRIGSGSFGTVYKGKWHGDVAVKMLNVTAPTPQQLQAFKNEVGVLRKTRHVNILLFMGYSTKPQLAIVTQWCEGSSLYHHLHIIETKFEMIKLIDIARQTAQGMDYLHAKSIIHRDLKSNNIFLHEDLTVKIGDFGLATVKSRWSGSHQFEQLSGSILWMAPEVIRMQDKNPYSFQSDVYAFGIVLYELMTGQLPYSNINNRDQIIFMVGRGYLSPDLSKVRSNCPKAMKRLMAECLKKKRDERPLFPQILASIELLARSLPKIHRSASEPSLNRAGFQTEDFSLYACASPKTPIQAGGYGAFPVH

`Cc1ncn(-c2nc3c(Nc4c(F)ccc(NS(=O)(=O)c5cccc(F)c5C)c4F)ncnc3s2)c1C` [Example 1]: the IC50 was 1 to 10 nM on BRAF; less than 10 nM at CRAF; less than 500 nM in the test on pERK, HCT116 cells. Besides, the “HCT116 pERK (Ymin %)” value with pERK, HCT116 cells is on record as −11%.
Taken in the same sequence, the figures for `Cc1c(F)cccc1S(=O)(=O)Nc1ccc(F)c(Nc2ncnc3sc(-n4cnc5c(N)cccc54)nc23)c1F` [Example 2] were 1 to 10 nM, 10 to 50 nM, less than 500 nM and −1%.
Turning to `Nc1cccc2c1ncn2-c1nc2c(Nc3c(F)ccc(NS(=O)(=O)c4cccc(Cl)c4Cl)c3F)ncnc2s1` [Example 3], the IC50 at BRAF is 1 to 10 nM; at CRAF, less than 10 nM; in the test on pERK, HCT116 cells it was less than 500 nM. Also, the “HCT116 pERK (Ymin %)” value in the test with pERK, HCT116 cells is −9%.
`O=S(=O)(Nc1ccc(F)c(Nc2ncnc3sc(-n4cnc5ccccc54)nc23)c1F)c1cccc(Cl)c1Cl` [Example 4, N-[3-[[2-(benzimidazol-1-yl)thiazolo[5,4-d]pyrimidin-7-yl]amino]-2,4-difluoro-phenyl]-2,3-dichloro-benzenesulfonamide]: the IC50 on BRAF was 1 to 10 nM; on CRAF, less than 10 nM; in the test on pERK, HCT116 cells (Homo sapiens, HCT-116) it was 500 to 1000 nM.
Regarding `Cc1c(Cl)cccc1S(=O)(=O)Nc1ccc(F)c(Nc2ncnc3sc(-n4cnc5c(N)cccc54)nc23)c1F` [Example 5], the IC50 on BRAF is 1 to 10 nM; on CRAF, less than 10 nM; in the test with pERK, HCT116 cells it was less than 500 nM. Further, the “HCT116 pERK (Ymin %)” value with pERK, HCT116 cells was −6%.
In the case of `Cc1c(Cl)cccc1S(=O)(=O)Nc1ccc(F)c(Nc2ncnc3sc(-n4cnc5ccccc54)nc23)c1F` [Example 6], the IC50 was 1 to 10 nM on BRAF; less than 10 nM on CRAF; 500 to 1000 nM in the test with pERK, HCT116 cells. In the test on pERK, HCT116 cells, the “HCT116 pERK (Ymin %)” value is −4%.
With `Cc1c(F)cccc1S(=O)(=O)Nc1ccc(F)c(Nc2ncnc3sc(-n4cnc5ccccc54)nc23)c1F` [Example 7], the IC50 on BRAF is 1 to 10 nM; on CRAF, less than 10 nM; in the test with pERK, HCT116 cells, less than 500 nM. In the test on pERK, HCT116 cells, the “HCT116 pERK (Ymin %)” value is −5%.
Turning to `Cc1c(F)cccc1S(=O)(=O)Nc1ccc(F)c(Nc2ncnc3sc(-n4cnc5c(-c6cccnc6)cccc54)nc23)c1F` [Example 8], the IC50 at BRAF was 1 to 10 nM; on CRAF, 10 to 50 nM; in the test on pERK, HCT116 cells (Homo sapiens, HCT-116), 500 to 1000 nM.
As to `O=S(=O)(Nc1ccc(F)c(Nc2ncnc3sc(-n4cnc5c(-c6cccnc6)cccc54)nc23)c1F)c1cccc(Cl)c1Cl` [Example 9], the concentration for half-maximal inhibition (IC50) at BRAF was 1 to 10 nM; on CRAF, less than 10 nM; in the test with pERK, HCT116 cells it was 500 to 1000 nM. In addition, the “HCT116 pERK (Ymin %)” value with pERK, HCT116 cells is reported as −9%.
Turning to `Cc1c(Cl)cccc1S(=O)(=O)Nc1ccc(F)c(Nc2ncnc3sc(-n4cnc5c(-c6cccnc6)cccc54)nc23)c1F` [Example 10], the IC50 at BRAF fell in the range of 1 to 10 nM; on CRAF it was 10 to 50 nM; with pERK, HCT116 cells it was 1000 to 10000 nM. Further, in the test with pERK, HCT116 cells, the “HCT116 pERK (Ymin %)” value is recorded as −2%.
For `CN(Cc1ccncc1)S(=O)(=O)c1cn(-c2nc3c(Nc4c(F)ccc(NS(=O)(=O)c5cccc(Cl)c5Cl)c4F)ncnc3s2)c2ccccc12` [Example 11], in that order: 1 to 10 nM, less than 10 nM, 1000 to 10000 nM and 4%.
As for `CN1CCN(S(=O)(=O)c2cn(-c3nc4c(Nc5c(F)ccc(NS(=O)(=O)c6cccc(Cl)c6Cl)c5F)ncnc4s3)c3ccccc23)CC1` [Example 12], the IC50 on BRAF lay within 1 to 10 nM; on CRAF, 10 to 50 nM; in the test on pERK, HCT116 cells (Homo sapiens, HCT-116), 1000 to 10000 nM.
For the compound `COc1ccc(S(=O)(=O)Nc2ccc(F)c(Nc3ncnc4sc(-n5cnc6c(N)cccc65)nc34)c2F)c(C)c1Cl` [Example 13], the IC50 on BRAF is 1 to 10 nM; at CRAF it was 10 to 50 nM; with pERK, HCT116 cells, 1000 to 10000 nM. In the test with pERK, HCT116 cells, the “HCT116 pERK (Ymin %)” value is given as −14%.
For `COc1ccc(S(=O)(=O)Nc2ccc(F)c(Nc3ncnc4sc(-n5cnc6ccccc65)nc34)c2F)c(C)c1Cl` [Example 14], in that order: 1 to 10 nM, 10 to 50 nM, 1000 to 10000 nM and −14%.
For `COc1ccc(S(=O)(=O)Nc2ccc(F)c(Nc3ncnc4sc(-n5cnc6c(N)cccc65)nc34)c2F)c(C)c1F` [Example 15], in that order: 1 to 10 nM, 10 to 50 nM, less than 500 nM and −3%.
Taken in the same sequence, the figures for `COc1ccc(S(=O)(=O)Nc2ccc(F)c(Nc3ncnc4sc(-n5cnc6ccccc65)nc34)c2F)c(C)c1F` [Example 16] were 1 to 10 nM, 10 to 50 nM, 500 to 1000 nM and −8%.
For `O=S(=O)(Nc1ccc(F)c(Nc2ncnc3sc(-n4cnc5c(C(F)(F)F)cccc54)nc23)c1F)c1cccc(Cl)c1Cl` [Example 17], the IC50 on BRAF fell in the range of 1 to 10 nM; on CRAF it was 10 to 50 nM; with pERK, HCT116 cells (Homo sapiens, HCT-116), 1000 to 10000 nM.
Take `O=S(=O)(Nc1ccc(F)c(Nc2ncnc3sc(-n4cnc5c(F)cccc54)nc23)c1F)c1cccc(Cl)c1Cl` [Example 18]: the IC50 at BRAF was less than 1 nM; on CRAF, less than 10 nM; in the test on pERK, HCT116 cells it was less than 500 nM. Moreover, in the test on pERK, HCT116 cells, the “HCT116 pERK (Ymin %)” value came out at 0%.

As usually defined, the IC50 is the concentration that inhibits the measured activity by half.
